Data taken from PMC7924852, “The Emericellipsins A–E from an Alkalophilic Fungus Emericellopsis alkalina Show Potent Activity against Multidrug-Resistant Pathogenic Fungi” (Journal of Fungi, 2021).
≈ marks a conversion by molar mass, not a printed value. Like-named read-outs stand apart in the source and are kept apart here. Starred links: 1 amine or outer side, 2 acyl side, 3 side chain; linkers in the order of their positions; H or OH if unused. Positions of bridges follow the written chain, without caps; N, C: chain ends. Non-standard residues stand in square brackets, D forms with d. Residues, ends and D or L forms follow the SMILES beside them. *: point of attachment. hTyr(3S-OH,4S-OH,3'-OSO3H) = N[C@H](C(=O)O)[C@H](O)[C@@H](O)c1ccc(O)c(OS(=O)(=O)O)c1; pTerphenylCO(4''-OnC5H11) = CCCCCOc1ccc(-c2ccc(-c3ccc(C(=O)*)cc3)cc2)cc1; Orn(4R-OH,5R-OH) = O=C([C@H](C[C@@H](O)[C@@H](O)N[*:3])N[*:1])[*:2]; hTyr(3S-OH,4S-OH) = N[C@H](C(=O)O)[C@H](O)[C@@H](O)c1ccc(O)cc1; Pro(3S-OH,4S-Me) = C[C@H]1CN[C@H](C(=O)O)[C@H]1O; X1 = CCCCCOc1ccc(-c2cc(-c3ccc(C(=O)*)cc3)no2)cc1; Gln(3R-OH) = NC(=O)C[C@@H](O)[C@H](N)C(=O)O; Hyp = O=C(O)[C@@H]1C[C@@H](O)CN1

What was measured:
[1] = system: C. glabrata 1402; test: Sensititre YeastOne antifungal susceptibility test; format: cell-based; details: Nakaseomyces glabratus
[2] = system: C. tropicalis 156; test: Sensititre YeastOne antifungal susceptibility test; format: cell-based; details: Candida tropicalis
[3] = system: Candida albicans 1402; test: Sensititre YeastOne antifungal susceptibility test; format: cell-based
[4] = system: A. terreus 497; test: Sensititre YeastOne antifungal susceptibility test; format: cell-based; details: Aspergillus terreus
[5] = system: A. fumigatus 390m; test: Sensititre YeastOne antifungal susceptibility test; format: cell-based; details: Aspergillus fumigatus
[6] = system: Aspergillus niger 1133m; test: Sensititre YeastOne antifungal susceptibility test; format: cell-based
[7] = system: C. krusei 1447; test: Sensititre YeastOne antifungal susceptibility test; format: cell-based; details: Pichia kudriavzevii
[8] = system: Cryptococcus neoformans 297; test: Sensititre YeastOne antifungal susceptibility test; format: cell-based
[9] = system: C. parapsilosis 571; test: Sensititre YeastOne antifungal susceptibility test; format: cell-based; details: Lodderomyces parapsilosis
[10] = system: Cr. laurentii 325m; test: Sensititre YeastOne antifungal susceptibility test; format: cell-based; details: Papiliotrema laurentii
[11] = system: A. terreus 497; test: Disc-diffusion antifungal assay; format: cell-based; details: 40 µg/disc; A. terreus 497, pathogenic clinical isolate
[12] = system: A. fumigatus 390 m; test: Disc-diffusion antifungal assay; format: cell-based, Aspergillus fumigatus; details: 40 µg/disc, pathogenic clinical isolate
[13] = system: A. fumigatus VKM F-37; test: Disc-diffusion antifungal assay; format: cell-based, Aspergillus fumigatus; details: 40 µg/disc
[14] = system: A. niger 1133 m; test: Broth two-fold microdilution MIC (CLSI); format: cell-based, Aspergillus niger; details: A. niger 1133 m clinical isolate; RPMI 1640 pH 7.0, 35 °C, 48 h
[15] = system: A. niger ATCC 16404; test: Broth two-fold microdilution MIC (CLSI); format: cell-based, Aspergillus niger; details: A. niger ATCC 16404; RPMI 1640 pH 7.0, 35 °C, 48 h, no visible growth
[16] = system: A. niger 1133 m; test: Disc-diffusion antifungal assay; format: cell-based, Aspergillus niger; details: 40 µg/disc, pathogenic clinical isolate
[17] = system: A. fumigatus VKM F-37; test: Broth two-fold microdilution MIC (CLSI); format: cell-based, Aspergillus fumigatus; details: A. fumigatus VKM F-37; RPMI 1640 pH 7.0, 35 °C, 48 h
[18] = system: reference and clinical strains of Aspergillus; test: Disc-diffusion antifungal assay, Aspergillus strains; format: cell-based; details: disc-diffusion, reference and clinical strains of Aspergillus
[19] = system: A. fumigatus 390 m; test: Broth two-fold microdilution MIC (CLSI); format: cell-based, Aspergillus fumigatus; details: A. fumigatus 390 m clinical isolate; RPMI 1640 pH 7.0, 35 °C, 48 h
[20] = system: A. terreus 3 K; test: Broth two-fold microdilution MIC (CLSI); format: cell-based; details: A. terreus 3 K; RPMI 1640 pH 7.0, 35 °C, 48 h
[21] = system: A. terreus 3 K; test: Disc-diffusion antifungal assay; format: cell-based; details: 40 µg/disc
[22] = system: A. terreus 497; test: Broth two-fold microdilution MIC (CLSI); format: cell-based; details: A. terreus 497 clinical isolate; RPMI 1640 pH 7.0, 35 °C, 48 h
[23] = system: Aspergillus niger ATCC 16404; test: Disc-diffusion antifungal assay; format: cell-based; details: 40 µg/disc; A. niger ATCC 16404
[24] = Sensititre YeastOne, C. glabrata 1402 clinical isolate, read-out: MIC
[25] = Sensititre YeastOne, C. tropicalis 156 clinical isolate, read-out: MIC
[26] = Sensititre YeastOne, Candida albicans 1402 clinical isolate, read-out: MIC
[27] = Sensititre YeastOne, A. terreus 497 clinical isolate, read-out: MIC
[28] = Sensititre YeastOne, A. fumigatus 390m clinical isolate, read-out: MIC
[29] = Sensititre YeastOne, Aspergillus niger 1133m clinical isolate, read-out: MIC
[30] = Sensititre YeastOne, C. krusei 1447 clinical isolate, read-out: MIC
[31] = Sensititre YeastOne, Cryptococcus neoformans 297 clinical isolate, read-out: MIC
[32] = Sensititre YeastOne, C. parapsilosis 571 clinical isolate, read-out: MIC
[33] = Sensititre YeastOne, Cr. laurentii 325m clinical isolate, read-out: MIC

| Molecule | MIC [1, 24] | MIC [2, 25] | MIC [3, 26] | MIC [4, 27] | MIC [5, 28] | MIC [6, 29] | MIC [7, 30] | MIC [8, 31] | MIC [9, 32] | MIC [10, 33] | MIC [1]; 1402 | MIC [2]; 156 | MIC ([3]; Candida albicans, 1402) | MIC [4]; 497 | MIC ([5]; 390M) | MIC ([6]; Aspergillus niger, 1133M) | MIC [7]; 1447 | MIC ([8]; Cryptococcus neoformans, 297) | MIC [9]; 571 | MIC ([10]; 325M) | also measured |
| --- | --- | --- | --- | --- | --- | --- | --- | --- | --- | --- | --- | --- | --- | --- | --- | --- | --- | --- | --- | --- | --- |
| C[C@@H](c1ncncc1F)[C@](O)(Cn1cncn1)c1ccc(F)cc1F [VOR, voriconazole] | 8 µg/mL (≈ 22.9 µM) | 4 µg/mL (≈ 11.5 µM) | 1 µg/mL (≈ 2.86 µM) | 0.25 µg/mL (≈ 0.716 µM) | 0.5 µg/mL (≈ 1.43 µM) | 8 µg/mL (≈ 22.9 µM) | 1 µg/mL (≈ 2.86 µM) | 0.25 µg/mL (≈ 0.716 µM) | 1 µg/mL (≈ 2.86 µM) | 0.5 µg/mL (≈ 1.43 µM) | – | – | – | – | – | – | – | – | – | – | – |
| CC(=O)N1CCN(c2ccc(OCC3COC(Cn4ccnc4)(c4ccc(Cl)cc4Cl)O3)cc2)CC1 (centres unmarked) [KZ, ketoconazole] | – | – | – | – | – | – | – | – | – | – | 4 µg/mL (≈ 7.53 µM) | 0.5 µg/mL (≈ 0.941 µM) | 4 µg/mL (≈ 7.53 µM) | 8 µg/mL (≈ 15.1 µM) | 8 µg/mL (≈ 15.1 µM) | 16 µg/mL (≈ 30.1 µM) | 0.5 µg/mL (≈ 0.941 µM) | 0.06 µg/mL (≈ 0.113 µM) | 0.5 µg/mL (≈ 0.941 µM) | 0.12 µg/mL (≈ 0.226 µM) | – |
| CCCCCOc1ccc(-c2ccc(-c3ccc(C(=O)N[C@H]4C[C@@H](O)[C@@H](O)NC(=O)[C@@H]5[C@@H](O)[C@@H](C)CN5C(=O)[C@H]([C@@H](C)O)NC(=O)[C@H]([C@H](O)[C@@H](O)c5ccc(O)cc5)NC(=O)[C@@H]5C[C@@H](O)CN5C(=O)[C@H]([C@@H](C)O)NC4=O)cc3)cc2)cc1 [AND, anidulafungin] ({pTerphenylCO(4''-OnC5H11)}-[Orn(4R-OH,5R-OH)]T[Hyp][hTyr(3S-OH,4S-OH)]T[Pro(3S-OH,4S-Me)]; lactam 1-C) | – | – | – | – | – | – | – | – | – | – | 0.06 µg/mL (≈ 0.0526 µM) | 0.12 µg/mL (≈ 0.105 µM) | 0.06 µg/mL (≈ 0.0526 µM) | > 8 µg/mL | > 8 µg/mL | > 8 µg/mL | 0.03 µg/mL (≈ 0.0263 µM) | > 8 µg/mL | 2 µg/mL (≈ 1.75 µM) | > 8 µg/mL | – |
| Nc1[nH]c(=O)ncc1F [Emi 5-FC, flucytosine] | – | – | – | – | – | – | – | – | – | – | 0.06 µg/mL (≈ 0.465 µM) | 0.06 µg/mL (≈ 0.465 µM) | 0.06 µg/mL (≈ 0.465 µM) | > 64 µg/mL | > 64 µg/mL | > 64 µg/mL | 32 µg/mL (≈ 248 µM) | 8 µg/mL (≈ 62 µM) | 0.5 µg/mL (≈ 3.87 µM) | 4 µg/mL (≈ 31 µM) | – |
| CCC(C)n1ncn(-c2ccc(N3CCN(c4ccc(OCC5COC(Cn6cncn6)(c6ccc(Cl)cc6Cl)O5)cc4)CC3)cc2)c1=O (centres unmarked) [IZ, itraconazole] | > 16 µg/mL | > 16 µg/mL | 0.5 µg/mL (≈ 0.709 µM) | 0.25 µg/mL (≈ 0.354 µM) | 0.25 µg/mL (≈ 0.354 µM) | 1 µg/mL (≈ 1.42 µM) | 0.5 µg/mL (≈ 0.709 µM) | 0.5 µg/mL (≈ 0.709 µM) | 0.5 µg/mL (≈ 0.709 µM) | 0.12 µg/mL (≈ 0.17 µM) | – | – | – | – | – | – | – | – | – | – | – |
| Methyldecanoyl-MePro-AHMOD-Ser-Aib-Ile-Iva-βAla-Alaol-Glyol [EmiC, emericellipsin C, homologue of emericellipsin A, nonribosomal peptaibol] | – | – | – | – | – | – | – | – | – | – | – | – | – | – | – | – | – | – | – | – | Zone of Inhibition [11]: 0 mm; Zone of Inhibition [12]: 0 mm; Zone of Inhibition [13]: 0 mm; Minimal Inhibitory Concentration (MIC) [14]: 32 µg/mL; Minimal Inhibitory Concentration (MIC) [15]: 32 µg/mL; Zone of Inhibition [16]: 0 mm; Minimal Inhibitory Concentration (MIC) [17]: 16 µg/mL; antifungal activity against Aspergillus strains (in words) [18]: low activity only against A. niger strains; Minimal Inhibitory Concentration (MIC) [19]: 16 µg/mL; Minimal Inhibitory Concentration (MIC) [20]: 8 µg/mL; Zone of Inhibition [21]: 0 mm; Minimal Inhibitory Concentration (MIC) [22]: 8 µg/mL; Zone of Inhibition [23]: 9 ± 0.31 mm |
| CCCCCOc1ccc(-c2cc(-c3ccc(C(=O)N[C@H]4C[C@@H](O)[C@@H](O)NC(=O)[C@@H]5[C@@H](O)[C@@H](C)CN5C(=O)[C@H]([C@H](O)CC(N)=O)NC(=O)[C@H]([C@H](O)[C@@H](O)c5ccc(O)c(OS(=O)(=O)O)c5)NC(=O)[C@@H]5C[C@@H](O)CN5C(=O)[C@H]([C@@H](C)O)NC4=O)cc3)no2)cc1 [MF, micafungin] (X1-[Orn(4R-OH,5R-OH)]T[Hyp][hTyr(3S-OH,4S-OH,3'-OSO3H)][Gln(3R-OH)][Pro(3S-OH,4S-Me)]; lactam 1-C) | – | – | – | – | – | – | – | – | – | – | 0.015 µg/mL (≈ 0.0118 µM) | 0.03 µg/mL (≈ 0.0236 µM) | 0.03 µg/mL (≈ 0.0236 µM) | > 8 µg/mL | > 8 µg/mL | > 8 µg/mL | 0.12 µg/mL (≈ 0.0945 µM) | > 8 µg/mL | 1 µg/mL (≈ 0.787 µM) | > 8 µg/mL | – |
| CC[C@@H]([C@H](C)O)n1ncn(-c2ccc(N3CCN(c4ccc(OC[C@@H]5CO[C@@](Cn6cncn6)(c6ccc(F)cc6F)C5)cc4)CC3)cc2)c1=O [PZ, posaconazole] | > 8 µg/mL | > 8 µg/mL | 0.5 µg/mL (≈ 0.713 µM) | 0.12 µg/mL (≈ 0.171 µM) | 0.25 µg/mL (≈ 0.357 µM) | 0.5 µg/mL (≈ 0.713 µM) | 0.5 µg/mL (≈ 0.713 µM) | 0.25 µg/mL (≈ 0.357 µM) | 1 µg/mL (≈ 1.43 µM) | 1 µg/mL (≈ 1.43 µM) | – | – | – | – | – | – | – | – | – | – | – |
